Literature values in patent EP1543827A1, “EMULSION OF PERFLUORORGANIC COMPOUNDS EXHIBITING GAS-TRANSPORT PROPERTIES, A SURFACE-ACTIVE AGENT FOR SAID EMULSION AND METHOD FOR THE PRODUCTION THEREOF” (Obshestvo C Ogranichennoi Otvetstvennostiu Accent, priority 2002, dated 2004).

Settings: in vivo

period of PFOC semi-clearance out of the organism | Molecule
65 days | FC(F)(F)C1(F)C(F)(F)C(F)(F)C(F)(N2C(F)(F)C(F)(F)C(F)(F)C(F)(F)C2(F)F)C(F)(F)C1(F)F (centres unmarked) [PMCP, perfluoro-n-methylcyclohexylpiperidine]
7 days | perfluordecalin [PFD]
